Like-named read-outs stand apart in the source and are kept apart here.
Target: human BCL6 BTB domain (Trx-6×His-BCL6) / BCOR-AF633 peptide (Homo sapiens (Human), UniProt P41182)
Assay: HTRF assay
Type: binding
[1] = 1 nM Trx-6×His-BCL6, 300 nM BCOR-AF633 peptide, 2 hours incubation
[2] = read-out: IC50 in the HTRF assay

Row | HTRF avg pIC50 (1 nM) [1] | IC50 [2] [nM] | SMILES | other results
1 | 7.52 | – | Cn1c(=O)c2c(c3cc(Nc4nc(N5CCC(F)(F)[C@@H](O)C5)ncc4Cl)ccc31)N[C@@H](C1CC1)CCO2 (single isomer, unassigned) [Example 12z, (R)-10-((5-chloro-2-((S)-4,4-difluoro-3-hydroxypiperidin-1-yl)pyrimidin-4-yl)amino)-2-cyclopropyl-7-methyl-1,2,3,4-tetrahydro-[1,4]oxazepino[2,3-c]quinolin-6(7H)-one or (R)-10-((5-chloro-2((R)-4,4-difluoro-3-hydroxypiperidin-1-yl)pyrimidin-4-yl)amino)-2-cyclopropyl-7-methyl-1,2,3,4-tetrahydro-[1,4]oxazepino[2,3-c]quinolin-6(7H)-one] | –
2 | 8.70 | – | C[C@H]1C[C@@H](O)CN(c2ncc(Cl)c(Nc3ccc4c(c3)c3c(c(=O)n4C)OCC(F)(F)[C@H](C4CC4)N3)n2)C1 (single isomer, unassigned) [Example 13d, (S)-10-((5-chloro-2-((3R,5S)-3-hydroxy-5-methylpiperidin-1-yl)pyrimidin-4-yl)amino)-2-cyclopropyl-3,3-difluoro-7-methyl-1,2,3,4-tetrahydro-[1,4]oxazepino[2,3-c]quinolin-6(7H)-one or (S)-10-((5-chloro-2-((3S,5R)-3-hydroxy-5-methylpiperidin-1-yl)pyrimidin-4-yl)amino)-2-cyclopropyl-3,3-difluoro-7-methyl-1,2,3,4-tetrahydro-[1,4]oxazepino[2,3-c]quinolin-6(7H)-one] | –
3 | 8.60 | – | C[C@@H]1C[C@H](O)CN(c2ncc(Cl)c(Nc3ccc4c(c3)c3c(c(=O)n4C)OCC(F)(F)[C@H](C4CC4)N3)n2)C1 (single isomer, unassigned) [Example 13e, (S)-10-((5-chloro-2-((3S,5R)-3-hydroxy-5-methylpiperidin-1-yl)pyrimidin-4-yl)amino)-2-cyclopropyl-3,3-difluoro-7-methyl-1,2,3,4-tetrahydro-[1,4]oxazepino[2,3-c]quinolin-6(7H)-one or (S)-10-((5-chloro-2-((3R,5S)-3-hydroxy-5-methylpiperidin-1-yl)pyrimidin-4-yl)amino)-2-cyclopropyl-3,3-difluoro-7-methyl-1,2,3,4-tetrahydro-[1,4]oxazepino[2,3-c]quinolin-6(7H)-one] | –
4 | 6.74 | – | C[C@H]1CN(c2ncc(Cl)c(Nc3ccc4c(c3)c3c(c(=O)n4C)OCC[C@H](C4CC4)N3)n2)CCC1(F)F (single isomer, unassigned) [Example 14a, (R)-10-((5-chloro-2-((S)-4,4-difluoro-3-methylpiperidin-1-yl)pyrimidin-4-yl)amino)-2-cyclopropyl-7-methyl-1,2,3,4-tetrahydro-[1,4]oxazepino[2,3-c]quinolin-6(7H)-one or (R)-10-((5-chloro-2-((R)-4,4-difluoro-3-methylpiperidin-1-yl)pyrimidin-4-yl)amino)-2-cyclopropyl-7-methyl-1,2,3,4-tetrahydro-[1,4]oxazepino[2,3-c]quinolin-6(7M)-one] | –
5 | 5.91 | – | CC1COc2c(c3cc(Nc4ccnc(Cl)c4C#N)ccc3n(C)c2=O)N1 (stereo not shown) [Example 1k, 2-chloro-4-((2,6-dimethyl-5-oxo-2,3,5,6-tetrahydro-1H-[1,4]oxazino[2,3-c]quinolin-9-yl)amino)nicotinonitrile] | –
6 | 6.22 | – | CCC1COc2c(c3cc(Nc4ccnc(Cl)c4C#N)ccc3n(C)c2=O)N1 (stereo not shown) [Example 1l, 2-chloro-4-((2-ethyl-6-methyl-5-oxo-2,3,5,6-tetrahydro-1H-[1,4]oxazino[2,3-c]quinolin-9-yl)amino)nicotinonitrile] | –
7 | 6.20 | – | Cn1c(=O)c2c(c3cc(Nc4ccnc(Cl)c4C#N)ccc31)NC(C1CC1)CO2 (stereo not shown) [Example 1m, 2-chloro-4((2-cyclopropyl-6-methyl-5-oxo-2,3,5,6-tetrahydro-1H-[1,4]oxazino[2,3-c]quinolin-9-yl)amino)nicotinonitrile] | –

Continued, molecule first:

Row | SMILES | HTRF avg pIC50 (1 nM) [1] | IC50 [2] [nM] | other results
8 | CC1Nc2c(c(=O)n(C)c3ccc(Nc4nc(N5C[C@H](C)C[C@H](C)C5)ncc4Cl)cc23)C(=O)OC1C (mixture of isomers) [Example 8q, rac-(2S,3R)-10-((5-chloro-2-((3S,5R)-3,5-dimethylpiperidin-1-yl)pyrimidin-4-yl)amino)-2,3,7-trimethyl-2,3-dihydro-[1,4]oxazepino[6,5-c]quinoline-5,6(1H,7H)-dione or rac-(2S,3S)-10-((5-chloro-2-((3S,5R)-3,5-dimethylpiperidin-1-yl)pyrimidin-4-yl)amino)-2,3,7-trimethyl-2,3-dihydro-[1,4]oxazepino[6,5-c]quinoline-5,6(1H,7H)-dione] | – | – | IC50 (HTRF avg pIC50 (1 nM), 1 nM Trx-6×His-BCL6, 300 nM BCOR-AF633 peptide, 2 hours incubation): 479 nM
9 | Cn1c(=O)c2c(c3cc(Nc4ccnc(Cl)c4C#N)ccc31)NC(C)(C)COC2=O [2-chloro-4-((2,2,7-trimethyl-5,6-dioxo-1,2,3,5,6,7-hexahydro-[1,4]oxazepino[6,5-c]quinolin-10-yl)amino)nicotinonitrile] | – | > 2500 | –
10 | CC1CC(C)(C)Oc2c(c3cc(Nc4ccnc(Cl)c4C#N)ccc3n(C)c2=O)N1 (stereo not shown) [2-chloro-4-((2,4,4,7-tetramethyl-6-oxo-1,2,3,4,6,7-hexahydro-[1,4]oxazepino[2,3-c]quinolin-10-yl)amino)nicotinonitrile] | – | > 2500 | –
11 | Cn1c(=O)c2c(c3cc(Nc4ccnc(Cl)c4C#N)ccc31)NC(CC1CC1)CO2 (stereo not shown) [2-chloro-4-((2-(cyclopropylmethyl)-6-methyl-5-oxo-2,3,5,6-tetrahydro-1H-[1,4]oxazino[2,3-c]quinolin-9-yl)amino)nicotinonitrile] | – | > 2500 | –
12 | Cn1c(=O)c2c(c3cc(Nc4ccnc(Cl)c4C#N)ccc31)NC(C1CCC1)CCO2 (stereo not shown) [2-chloro-4-((2-cyclobutyl-7-methyl-6-oxo-1,2,3,4,6,7-hexahydro-[1,4]oxazepino[2,3-c]quinolin-10-yl)amino)nicotinonitrile] | – | > 2500 | –
13 | CC(C)C1CCOc2c(c3cc(Nc4ccnc(Cl)c4C#N)ccc3n(C)c2=O)N1 (stereo not shown) [2-chloro-4-((2-isopropyl-7-methyl-6-oxo-1,2,3,4,6,7-hexahydro-[1,4]oxazepino[2,3-c]quinolin-10-yl)amino)nicotinonitrile] | – | > 2500 | –
14 | CC(=O)N1CC2CC(C1)CN(c1ncc(Cl)c(Nc3ccc4c(c3)c3c(c(=O)n4C)C(=O)OC[C@H](C)N3)n1)C2 [(2S)-10-((2-(7-acetyl-3,7-diazabicyclo[3.3.1]nonan-3-yl)-5-chloropyrimidin-4-yl)amino)-2,7-dimethyl-2,3-dihydro-[1,4]oxazepino[6,5-c]quinoline-5,6(1H,7H)-dione] | – | > 2500 | –
15 | COc1cnc(N2C[C@@H](C)C(F)(F)[C@@H](C)C2)nc1Nc1ccc2c(c1)c1c(c(=O)n2C)OCC[C@H](C2CC2)N1 [(R)-2-cyclopropyl-10-((2-((3S,5R)-4,4-difluoro-3,5-dimethylpiperidin-1-yl)-5-methoxypyrimidin-4-yl)amino)-7-methyl-1,2,3,4-tetrahydro-[1,4]oxazepino[2,3-c]quinolin-6(7H)-one] | – | > 2500 | –
16 | CC1Nc2c(c(=O)n(C)c3ccc(Nc4ccnc(Cl)c4C#N)cc23)OCC12CC2 (stereo not shown) [Example 1i, 2-chloro-4-((2′,7′-dimethyl-6′-oxo-1′,2′,6′,7′-tetrahydro-4′H-spiro[cyclopropane-1,3^′-[1,4]oxazepino[2,3-c]quinolin]-10^′-yl)amino)nicotinonitrile] | 5.97 | – | –

From patent publication US20230287003A1, “BCL6 INHIBITORS” (Cancer Research Technology Limited, priority 2018, published 2023)
